Data set [1] can be described thus: Compound induced cellular toxicity in HepG2 cells (ATPlite). Format: cell-based. The conditions noted are these: human, three days, ATPlite 1 Step, concentration reducing total ATP levels by 50% relative to no drug controls. How it is done:
At day 3, post seeding cells are treated with ATPlite 1 Step according to the manufacturer's instructions.

The subject of another data set is 2.2.15 cells. In words: Antiviral activity in 2.2.15 cells: reduction of viral product accumulation (qPCR, HBsAg/HBeAg ELISA). Format: cell-based, HBV. The note with it: Hepatitis B virus, 120 h, day 5 post treatment, concentration reducing viral product accumulation in cell lysates or supernatants by 50% relative to no drug controls. On the procedure:
2.2.15 cells are passaged upon attaining confluency in DMEM/F12 media in the presence of 10% FBS, Penn/Strep, and 250 ug/mL G418. Novel compounds are 5 fold serially diluted in DMSO and added to 96 well plates containing 35,000 cells/well at a 1:200 dilution so that the final concentration of DMSO is 0.5%. On day 5, post treatment cell lysates and supernatants are harvested for analysis.
Cells are lysed using Agilent Sidestep Lysis buffer, diluted 1:100 and quantified via quantitative real time PCR. Commercially available ELISA kits are used to quantitate the viral proteins HBsAg (Alpco) or HBeAg (US Biological) by following the manufacturer's recommended protocol after diluting samples to match the linear range of their respective assays. Irrespective of readout, compound concentrations that reduce viral product accumulation in the cell lysates or supernatants by 50% relative to no drug controls (EC50) are reported; EC50 ranges are as follows: A<0.1 μM; B 0.1-1 μM; C>1 μM.
On the technique in general: Real-time PCR tracks product formation cycle by cycle.

Turning to `CC(C)(C)[C@@H]1Cc2c(oc3c(-c4ccsc4)cccc23)-c2cc(=O)c(C(=O)O)cn21` [Example 35, (S)-6-(tert-butyl)-2-oxo-11-(thiophen-3-yl)-6,7-dihydro-2H-benzofuro[2,3-a]quinolizine-3-carboxylic acid], the half-maximal cytotoxic concentration (CC50) (in general, the concentration that lowers cell viability or growth by half) at 3 days in data set [1] was greater than 25 µM. In addition, in the data set on 2.2.15 cells, the concentration for a half-maximal effect (EC50) (usually the concentration giving half of the maximal effect) is less than 0.1 µM.

In the data set on 2.2.15 cells, `CC(C)(C)[C@@H]1Cc2c(oc3cc(-c4ccsc4)ccc23)-c2cc(=O)c(C(=O)O)cn21` [Example 20, (S)-6-(tert-butyl)-2-oxo-10-(thiophen-3-yl)-6,7-dihydro-2H-benzofuro[2,3-a]quinolizine-3-carboxylic acid] registered a half-maximal effective concentration (EC50) of less than 0.1 µM. The molecule `CC(C)(C)[C@@H]1Cc2c(oc3c(OC(F)F)cccc23)-c2cc(=O)c(C(=O)O)cn21` [Example 4, (S)-6-(tert-butyl)-11-(difluoromethoxy)-2-oxo-6,7-dihydro-2H-benzofuro[2,3-a]quinolizine-3-carboxylic acid] returned a cytotoxic concentration (CC50) at 3 days in data set [1] greater than 25 µM. The molecule also had an EC50 in the data set with 2.2.15 cells of less than 0.1 µM.

`CC(C)[C@@H]1Cc2c(oc3cc(C4CC4)ccc23)-c2cc(=O)c(C(=O)O)cn21` [Example 74, (S)-10-cyclopropyl-6-isopropyl-2-oxo-6,7-dihydro-2H-benzofuro[2,3-a]quinolizine-3-carboxylic acid]: the CC50 at 3 days in data set [1] is 10 to 25 µM. This molecule yielded an EC50 in the data set with 2.2.15 cells of less than 0.1 µM. Take `Cn1nccc1-c1cccc2c3c(oc12)-c1c(F)c(=O)c(C(=O)O)cn1[C@H](C(C)(C)C)C3` [Example 59, (S)-6-(tert-butyl)-1-fluoro-11-(1-methyl-1H-pyrazol-5-yl)-2-oxo-6,7-dihydro-2H-benzofuro[2,3-a]quinolizine-3-carboxylic acid]: the CC50 at 3 days in data set [1] was greater than 25 µM. Also, in the data set on 2.2.15 cells, the EC50 is less than 0.1 µM.

For the molecule `CC(C)[C@@H]1Cc2c(oc3cc(-n4cccn4)ccc23)-c2cc(=O)c(C(=O)O)cn21` [Example 72, (S)-6-isopropyl-2-oxo-10-(1H-pyrazol-1-yl)-6,7-dihydro-2H-benzofuro[2,3-a]quinolizine-3-carboxylic acid], in data set [1], the 50% cytotoxic concentration (CC50) at 3 days was less than 10 µM. This molecule returned a concentration giving a half-maximal response (EC50) in the data set with 2.2.15 cells of less than 0.1 µM.

In data set [1], `CC(C)(C)[C@@H]1Cc2c(oc3c(-c4cccs4)cccc23)-c2c(F)c(=O)c(C(=O)O)cn21` [Example 54, (S)-6-(tert-butyl)-1-fluoro-2-oxo-11-(thiophen-2-yl)-6,7-dihydro-2H-benzofuro[2,3-a]quinolizine-3-carboxylic acid] returned a cytotoxic concentration (CC50) at 3 days greater than 25 µM. In addition, in the data set with 2.2.15 cells, the 50% effective concentration (EC50) was less than 0.1 µM. Molecule `Cc1ccc2c3c(oc2c1)-c1cc(=O)c(C(=O)O)cn1[C@H](C(C)(C)C)C3` [Example 24, (S)-6-(tert-butyl)-10-methyl-2-oxo-6,7-dihydro-2H-benzofuro[2,3-a]quinolizine-3-carboxylic acid] had a CC50 at 3 days in data set [1] greater than 25 µM. This molecule also yielded a half-maximal effective concentration (EC50) in the data set on 2.2.15 cells of less than 0.1 µM.

Consider `CC(C)(C)[C@@H]1Cc2c(oc3c(-c4cccs4)cccc23)-c2cc(=O)c(C(=O)O)cn21` [Example 37, (S)-6-(tert-butyl)-2-oxo-11-(thiophen-2-yl)-6,7-dihydro-2H-benzofuro[2,3-a]quinolizine-3-carboxylic acid], for which, in data set [1], the CC50 at 3 days was greater than 25 µM. In addition, in the data set with 2.2.15 cells, the concentration giving a half-maximal response (EC50) is less than 0.1 µM. In turn, `Cn1cc(-c2cccc3c4c(oc23)-c2c(F)c(=O)c(C(=O)O)cn2[C@H](C(C)(C)C)C4)cn1` [Example 55, (S)-6-(tert-butyl)-1-fluoro-11-(1-methyl-1H-pyrazol-4-yl)-2-oxo-6,7-dihydro-2H-benzofuro[2,3-a]quinolizine-3-carboxylic acid] gave a CC50 at 3 days in data set [1] greater than 25 µM. In the data set with 2.2.15 cells, this molecule showed an EC50 of less than 0.1 µM.

In turn, `CC(C)[C@@H]1Cc2c(oc3cc(-c4cccs4)ccc23)-c2cc(=O)c(C(=O)O)cn21` [Example 75, (S)-6-isopropyl-2-oxo-10-(thiophen-2-yl)-6,7-dihydro-2H-benzofuro[2,3-a]quinolizine-3-carboxylic acid] had an EC50 in the data set on 2.2.15 cells of less than 0.1 µM. Consider `CC(C)(C)[C@@H]1Cc2c(oc3c(-c4cnco4)cccc23)-c2c(F)c(=O)c(C(=O)O)cn21` [Example 58, (S)-6-(tert-butyl)-1-fluoro-11-(oxazol-5-yl)-2-oxo-6,7-dihydro-2H-benzofuro[2,3-a]quinolizine-3-carboxylic acid], for which the CC50 at 3 days in data set [1] was greater than 25 µM. The same molecule had a 50% effective concentration (EC50) in the data set on 2.2.15 cells of less than 0.1 µM. Regarding `CC(C)[C@@H]1Cc2c(oc3c(-n4cccn4)cccc23)-c2cc(=O)c(C(=O)O)cn21` [Example 81, (S)-6-isopropyl-2-oxo-11-(1H-pyrazol-1-yl)-6,7-dihydro-2H-benzofuro[2,3-a]quinolizine-3-carboxylic acid], the cytotoxic concentration (CC50) at 3 days in data set [1] is greater than 25 µM. In addition, the EC50 with 2.2.15 cells is less than 0.1 µM. `CC(C)[C@@H]1Cc2c(oc3cc(C#N)ccc23)-c2cc(=O)c(C(=O)O)cn21` [Example 69, (S)-10-cyano-6-isopropyl-2-oxo-6,7-dihydro-2H-benzofuro[2,3-a]quinolizine-3-carboxylic acid] had a 50% cytotoxic concentration (CC50) at 3 days in data set [1] greater than 25 µM. In the data set with 2.2.15 cells, this molecule came in with an EC50 of less than 0.1 µM. Consider `CC(C)(C)[C@@H]1Cc2c(oc3c(N4CCC(F)(F)C4)cccc23)-c2cc(=O)c(C(=O)O)cn21` [Example 36, (S)-6-(tert-butyl)-11-(3,3-difluoropyrrolidin-1-yl)-2-oxo-6,7-dihydro-2H-benzofuro[2,3-a]quinolizine-3-carboxylic acid], for which the 50% cytotoxic concentration (CC50) at 3 days in data set [1] is greater than 25 µM. Besides, the EC50 in the data set with 2.2.15 cells is less than 0.1 µM.

Consider `CC(C)[C@@H]1Cc2c(oc3c(-c4ccsc4)cccc23)-c2cc(=O)c(C(=O)O)cn21` [Example 80, (S)-6-isopropyl-2-oxo-11-(thiophen-3-yl)-6,7-dihydro-2H-benzofuro[2,3-a]quinolizine-3-carboxylic acid], for which the CC50 at 3 days in data set [1] is less than 10 µM. In the data set with 2.2.15 cells, this molecule returned an EC50 of less than 0.1 µM.

In turn, `CC(C)(C)[C@@H]1Cc2c(oc3cc(OC(F)F)ccc23)-c2cc(=O)c(-c3ncn[nH]3)cn21` [Example 7, (S)-6-(tert-butyl)-10-(difluoromethoxy)-3-(1H-1,2,4-triazol-5-yl)-6,7-dihydro-2H-benzofuro[2,3-a]quinolizin-2-one] had a CC50 at 3 days in data set [1] greater than 25 µM. Moreover, the concentration giving a half-maximal response (EC50) in the data set on 2.2.15 cells was less than 0.1 µM. `Cn1ccc(-c2cccc3c4c(oc23)-c2c(F)c(=O)c(C(=O)O)cn2[C@H](C(C)(C)C)C4)n1` [Example 56, (S)-6-(tert-butyl)-1-fluoro-11-(1-methyl-1H-pyrazol-3-yl)-2-oxo-6,7-dihydro-2H-benzofuro[2,3-a]quinolizine-3-carboxylic acid]: the EC50 in the data set with 2.2.15 cells is less than 0.1 µM. As to `CC(C)(C)[C@@H]1Cc2c(oc3cc(-c4cnsc4)ccc23)-c2cc(=O)c(C(=O)O)cn21` [Example 19, (S)-6-(tert-butyl)-10-(isothiazol-4-yl)-2-oxo-6,7-dihydro-2H-benzofuro[2,3-a]quinolizine-3-carboxylic acid], in the data set on 2.2.15 cells, the EC50 is less than 0.1 µM. With `CC(C)(C)[C@@H]1Cc2c(oc3c(N4CCCC4)cccc23)-c2cc(=O)c(C(=O)O)cn21` [Example 40, (S)-6-(tert-butyl)-2-oxo-11-(pyrrolidin-1-yl)-6,7-dihydro-2H-benzofuro[2,3-a]quinolizine-3-carboxylic acid], the EC50 in the data set with 2.2.15 cells is less than 0.1 µM. For the molecule `CC(C)(C)[C@@H]1Cc2c(oc3cc(-c4cscn4)ccc23)-c2cc(=O)c(C(=O)O)cn21` [Example 22, (S)-6-(tert-butyl)-2-oxo-10-(thiazol-4-yl)-6,7-dihydro-2H-benzofuro[2,3-a]quinolizine-3-carboxylic acid], the EC50 in the data set with 2.2.15 cells is less than 0.1 µM. The same measure, in the same setting: the figure for `Cn1ccc(-c2ccc3c4c(oc3c2)-c2cc(=O)c(C(=O)O)cn2[C@H](C(C)(C)C)C4)n1` [Example 9, (S)-6-(tert-butyl)-10-(1-methyl-1H-pyrazol-3-yl)-2-oxo-6,7-dihydro-2H-benzofuro[2,3-a]quinolizine-3-carboxylic acid] is less than 0.1 µM. `CC(C)(C)[C@@H]1Cc2c(oc3c(N4CCC(F)(F)C4)cccc23)-c2c(F)c(=O)c(C(=O)O)cn21` [Example 60, (S)-6-(tert-butyl)-11-(3,3-difluoropyrrolidin-1-yl)-1-fluoro-2-oxo-6,7-dihydro-2H-benzofuro[2,3-a]quinolizine-3-carboxylic acid] yielded a concentration giving a half-maximal response (EC50) with 2.2.15 cells of less than 0.1 µM.

In the data set with 2.2.15 cells, `CC(C)(C)[C@@H]1Cc2c(oc3cc(-c4cccs4)ccc23)-c2cc(=O)c(C(=O)O)cn21` [Example 18, (S)-6-(tert-butyl)-2-oxo-10-(thiophen-2-yl)-6,7-dihydro-2H-benzofuro[2,3-a]quinolizine-3-carboxylic acid] registered an EC50 of less than 0.1 µM. Same read-out and setting: next, `Cc1cccc2c3c(oc12)-c1cc(=O)c(C(=O)O)cn1[C@H](C(C)(C)C)C3` [Example 44, (S)-6-(tert-butyl)-11-methyl-2-oxo-6,7-dihydro-2H-benzofuro[2,3-a]quinolizine-3-carboxylic acid]: 0.1 to 1 µM; `CC(C)(C)[C@@H]1Cc2c(oc3cc(-c4ccco4)ccc23)-c2cc(=O)c(C(=O)O)cn21` [Example 15, (S)-6-(tert-butyl)-10-(furan-2-yl)-2-oxo-6,7-dihydro-2H-benzofuro[2,3-a]quinolizine-3-carboxylic acid]: less than 0.1 µM; `CC(C)(C)[C@@H]1Cc2c(oc3cc(-c4ccoc4)ccc23)-c2cc(=O)c(C(=O)O)cn21` [Example 5, (S)-6-(tert-butyl)-10-(furan-3-yl)-2-oxo-6,7-dihydro-2H-benzofuro[2,3-a]quinolizine-3-carboxylic acid]: less than 0.1 µM.

The values are drawn from patent US10865211B2 (ENANTA PHARMACEUTICALS, INC, priority 2018, dated 2020).
